Results reported in patent US11590139B2, “Substituted aminopurine compounds, compositions thereof, and methods of treatment therewith” (Signal Pharmaceuticals, LLC, priority 2014, dated 2023).

The compounds below were run on Lox-IMVI melanoma cell line (assay: Lox-IMVI anti-proliferative assay (growth inhibition, Cell Titer-Glo)). Settings: Homo sapiens; Lox-IMVI anti-proliferative assay, IC50 activity level; read-out: Activity.
Assay type: cell-based, human
Outline: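 Viability read by ATP luminescence (Cell Titer-Glo) at t0 and after 72 h at 37 °C, 5% CO2, with normalisation to DMSO-treated cells. Compound tested at 0.5 nM–10 μM in 3-fold, 10-point series (0.2% DMSO final) on Lox-IMVI in RPMI+10% FBS; IC50 by 4-parameter sigmoidal fit.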

SMILES	IC50
NC(=O)[C@H]1CC[C@@H](n2c(Nc3c(F)cc(F)cc3F)nc3cnc(N[C@H]4CCC[C@H](O)C4)nc32)CC1 [Example 458, (1R,4s)-4-(2-((1S,3S)-3-hydroxycyclohexylamino)-8-(2,4,6-trifluorophenylamino)-9H-purin-9-yl)cyclohexanecarboxamide]	> 1000 nM
NC(=O)[C@H]1CC[C@@H](n2c(Nc3c(F)cc(F)cc3Cl)nc3cnc(N[C@H]4CCC[C@H](O)C4)nc32)CC1 [Example 459, (1R,4s)-4-(8-(2-chloro-4,6-difluorophenylamino)-2-((1S,3S)-3-hydroxycyclohexylamino)-9H-purin-9-yl)cyclohexanecarboxamide]	> 1000 nM
NC(=O)[C@H]1CC[C@@H](n2c(Nc3c(F)cc(Cl)cc3F)nc3cnc(N[C@H]4CCC[C@H](O)C4)nc32)CC1 [Example 460, (1R,4s)-4-(8-(4-chloro-2,6-difluorophenylamino)-2-((1S,3S)-3-hydroxycyclohexylamino)-9H-purin-9-yl)cyclohexanecarboxamide]	> 1000 nM
NC(=O)[C@H]1CC[C@@H](n2c(Nc3c(Cl)cc(Cl)cc3Cl)nc3cnc(N[C@H]4CCC[C@H](O)C4)nc32)CC1 [Example 461, (1R,4s)-4-(2-((1S,3S)-3-hydroxycyclohexylamino)-8-(2,4,6-trichlorophenylamino)-9H-purin-9-yl)cyclohexanecarboxamide]	> 1000 nM
NC(=O)[C@H]1CC[C@@H](n2c(Nc3c(Cl)cc(F)cc3Cl)nc3cnc(N[C@H]4CCC[C@H](O)C4)nc32)CC1 [Example 462, (1R,4s)-4-(8-(2,6-dichloro-4-fluorophenylamino)-2-((1S,3S)-3-hydroxycyclohexylamino)-9H-purin-9-yl)cyclohexanecarboxamide]	> 1000 nM
NC(=O)[C@H]1CC[C@@H](n2c(Nc3ccc(Cl)c(F)c3F)nc3cnc(N[C@H]4CCC[C@H](O)C4)nc32)CC1 [Example 463, (1R,4s)-4-(8-(4-chloro-2,3-difluorophenylamino)-2-((1S,3S)-3-hydroxycyclohexylamino)-9H-purin-9-yl)cyclohexanecarboxamide]	> 1000 nM
NC(=O)[C@H]1CC[C@@H](n2c(Nc3c(F)cc(Cl)cc3Cl)nc3cnc(N[C@H]4CCC[C@H](O)C4)nc32)CC1 [Example 464, (1R,4s)-4-(8-(2,4-dichloro-6-fluorophenylamino)-2-((1S,3S)-3-hydroxycyclohexylamino)-9H-purin-9-yl)cyclohexanecarboxamide]	500 to 1000 nM
NC(=O)[C@H]1CC[C@@H](n2c(Nc3cc(F)c(Cl)cc3F)nc3cnc(N[C@H]4CCC[C@H](O)C4)nc32)CC1 [Example 465, (1R,4s)-4-(8-(4-chloro-2,5-difluorophenylamino)-2-((1S,3S)-3-hydroxycyclohexylamino)-9H-purin-9-yl)cyclohexanecarboxamide]	> 1000 nM
NC(=O)[C@H]1CC[C@@H](n2c(Nc3c(F)cc(F)cc3Cl)nc3cnc(N[C@@H]4CCCC[C@H]4O)nc32)CC1 [Example 466, (1S,4s)-4-(8-(2-chloro-4,6-difluorophenylamino)-2-((1R,2R)-2-hydroxycyclohexylamino)-9H-purin-9-yl)cyclohexanecarboxamide]	> 1000 nM
NC(=O)[C@H]1CC[C@@H](n2c(Nc3c(F)cc(Cl)cc3F)nc3cnc(N[C@@H]4CCCC[C@H]4O)nc32)CC1 [Example 467, (1S,4s)-4-(8-(4-chloro-2,6-difluorophenylamino)-2-((1R,2R)-2-hydroxycyclohexylamino)-9H-purin-9-yl)cyclohexanecarboxamide]	> 1000 nM
NC(=O)[C@H]1CC[C@@H](n2c(Nc3c(Cl)cc(Cl)cc3Cl)nc3cnc(N[C@@H]4CCCC[C@H]4O)nc32)CC1 [Example 468, (1S,4s)-4-(2-((1R,2R)-2-hydroxycyclohexylamino)-8-(2,4,6-trichlorophenylamino)-9H-purin-9-yl)cyclohexanecarboxamide]	> 1000 nM
NC(=O)[C@H]1CC[C@@H](n2c(Nc3c(Cl)cc(F)cc3Cl)nc3cnc(N[C@@H]4CCCC[C@H]4O)nc32)CC1 [Example 469, (1S,4s)-4-(8-(2,6-dichloro-4-fluorophenylamino)-2-((1R,2R)-2-hydroxycyclohexylamino)-9H-purin-9-yl)cyclohexanecarboxamide]	> 1000 nM
NC(=O)[C@H]1CC[C@@H](n2c(Nc3c(F)cc(Cl)cc3Cl)nc3cnc(N[C@@H]4CCCC[C@H]4O)nc32)CC1 [Example 470, (1S,4s)-4-(8-(2,4-dichloro-6-fluorophenylamino)-2-((1R,2R)-2-hydroxycyclohexylamino)-9H-purin-9-yl)cyclohexanecarboxamide]	> 1000 nM
NC(=O)[C@H]1CC[C@@H](n2c(Nc3c(F)cc(Cl)cc3Cl)nc3cnc(N[C@H](CO)C(F)(F)F)nc32)CC1 [Example 471, (1S,4s)-4-(8-(2,4-dichloro-6-fluorophenylamino)-2-((R)-1,1,1-trifluoro-3-hydroxypropan-2-ylamino)-9H-purin-9-yl)cyclohexanecarboxamide]	> 1000 nM
N#Cc1cc(Cl)c(Nc2nc3cnc(N[C@H](CO)C(F)(F)F)nc3n2[C@H]2CC[C@@H](C(N)=O)CC2)c(Cl)c1 [Example 472, (1S,4s)-4-(8-(2,6-dichloro-4-cyanophenylamino)-2-((R)-1,1,1-trifluoro-3-hydroxypropan-2-ylamino)-9H-purin-9-yl)cyclohexanecarboxamide]	> 1000 nM
C[C@]1(C(N)=O)CC[C@H](n2c(Nc3c(F)cc(Cl)cc3F)nc3cnc(NC4CCOCC4)nc32)CC1 [Example 473, (1r,4r)-4-(8-(4-chloro-2,6-difluorophenylamino)-2-(tetrahydro-2H-pyran-4-ylamino)-9H-purin-9-yl)-1-methylcyclohexanecarboxamide]	> 1000 nM
C[C@]1(C(N)=O)CC[C@H](n2c(Nc3c(Cl)cc(Cl)cc3Cl)nc3cnc(NC4CCOCC4)nc32)CC1 [Example 474, (1r,4r)-1-methyl-4-(2-(tetrahydro-2H-pyran-4-ylamino)-8-(2,4,6-trichlorophenylamino)-9H-purin-9-yl)cyclohexanecarboxamide]	> 1000 nM
C[C@]1(C(N)=O)CC[C@H](n2c(Nc3c(Cl)cc(C#N)cc3Cl)nc3cnc(NC4CCOCC4)nc32)CC1 [Example 475, (1r,4r)-4-(8-(2,6-dichloro-4-cyanophenylamino)-2-(tetrahydro-2H-pyran-4-ylamino)-9H-purin-9-yl)-1-methylcyclohexanecarboxamide]	500 to 1000 nM
C[C@]1(C(N)=O)CC[C@H](n2c(Nc3c(Cl)cc(F)cc3Cl)nc3cnc(NC4CCC(F)(F)CC4)nc32)CC1 [Example 476, (1r,4r)-4-(8-(2,6-dichloro-4-fluorophenylamino)-2-(4,4-difluorocyclohexylamino)-9H-purin-9-yl)-1-methylcyclohexanecarboxamide]	> 1000 nM
C[C@]1(C(N)=O)CC[C@H](n2c(Nc3c(F)cc(F)cc3Cl)nc3cnc(NC4CCC(F)(F)CC4)nc32)CC1 [Example 477, (1r,4r)-4-(8-(2-chloro-4,6-difluorophenylamino)-2-(4,4-difluorocyclohexylamino)-9H-purin-9-yl)-1-methylcyclohexanecarboxamide]	> 1000 nM
C[C@]1(C(N)=O)CC[C@H](n2c(Nc3c(F)cc(Cl)cc3Cl)nc3cnc(NC4CCC(F)(F)CC4)nc32)CC1 [Example 478, (1r,4r)-4-(8-(2,4-dichloro-6-fluorophenylamino)-2-(4,4-difluorocyclohexylamino)-9H-purin-9-yl)-1-methylcyclohexanecarboxamide]	> 1000 nM
C[C@]1(C(N)=O)CC[C@H](n2c(Nc3c(Cl)cc(C#N)cc3Cl)nc3cnc(NC4CCC(F)(F)CC4)nc32)CC1 [Example 479, (1r,4r)-4-(8-(2,6-dichloro-4-cyanophenylamino)-2-(4,4-difluorocyclohexylamino)-9H-purin-9-yl)-1-methylcyclohexanecarboxamide]	> 1000 nM
C[C@@H](CO)Nc1ncc2nc(Nc3c(Cl)cc(C(F)(F)F)cc3Cl)n([C@H]3CC[C@](C)(C(N)=O)CC3)c2n1 [Example 480, (1S,4r)-4-(8-(2,6-dichloro-4-(trifluoromethyl)phenylamino)-2-((S)-1-hydroxypropan-2-ylamino)-9H-purin-9-yl)-1-methylcyclohexanecarboxamide]	> 1000 nM
C[C@@H](CO)Nc1ncc2nc(Nc3c(Cl)cc(Cl)cc3Cl)n([C@H]3CC[C@](C)(C(N)=O)CC3)c2n1 [Example 481, (1S,4r)-4-(2-((S)-1-hydroxypropan-2-ylamino)-8-(2,4,6-trichlorophenylamino)-9H-purin-9-yl)-1-methylcyclohexanecarboxamide]	> 1000 nM
CC(C)(CO)CNc1ncc2nc(Nc3c(Cl)cc(C#N)cc3Cl)n([C@H]3CC[C@@H](C(N)=O)CC3)c2n1 [Example 482, (1s,4s)-4-(8-(2,6-dichloro-4-cyanophenylamino)-2-(3-hydroxy-2,2-dimethylpropylamino)-9H-purin-9-yl)cyclohexanecarboxamide]	> 1000 nM
NC(=O)[C@H]1CC[C@@H](n2c(Nc3c(Cl)cc(Cl)cc3Cl)nc3cnc(N[C@@H]4CCCC[C@@H]4O)nc32)CC1 [Example 483, (1S,4s)-4-(2-((1R,2S)-2-hydroxycyclohexylamino)-8-(2,4,6-trichlorophenylamino)-9H-purin-9-yl)cyclohexanecarboxamide]	> 1000 nM
C[C@]1(C(N)=O)CC[C@H](n2c(Nc3c(F)cc(Cl)cc3Cl)nc3cnc(N[C@@H]4CCC[C@H](O)C4)nc32)CC1 [Example 484, (1R,4r)-4-(8-(2,4-dichloro-6-fluorophenylamino)-2-((1R,3S)-3-hydroxycyclohexylamino)-9H-purin-9-yl)-1-methylcyclohexanecarboxamide]	> 1000 nM
C[C@]1(C(N)=O)CC[C@H](n2c(Nc3c(Cl)cc(C#N)cc3Cl)nc3cnc(NC4CCCC4)nc32)CC1 [Example 485, (1r,4r)-4-(2-(cyclopentylamino)-8-(2,6-dichloro-4-cyanophenylamino)-9H-purin-9-yl)-1-methylcyclohexanecarboxamide]	500 to 1000 nM
